Laboratory results published in the supplement of paper PMC10733146.

Columns and labels:
Test in all cases: viability relative to DMSO control (fraction); higher = less drug effect (more viable cells)
Settings in all cases: 48 h
[1] = system: primary AML patient cells (S037)
Outline: (§1)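 Cells were incubated for 48 h at 37 °C and 5% CO2 in RPMI-1640 with penicillin/streptomycin, L-glutamine and human serum, at 4 × 10^4 cells per well in 384-well plates with compounds pre-plated at five concentrations, one well each. These were primary mononuclear tumour cells, fresh or cryopreserved, Ficoll-isolated from blood or bone marrow or obtained from processed lymph node. Viability values are CellTiter-Glo luminescence relative to the median of 16 inner DMSO wells.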

[2] = system: primary AML patient cells (S091)
Outline: as §1

[3] = system: primary AML patient cells (S012)
Outline: as §1

[4] = system: primary AML patient cells (S002)
Outline: as §1

[5] = system: primary AML patient cells (S017)
Outline: as §1

[6] = system: primary AML patient cells (S021)
Outline: as §1

[7] = system: primary AML patient cells (S011)
Outline: as §1

[8] = system: primary AML patient cells (S006)
Outline: as §1

[9] = system: primary AML patient cells (S089)
Outline: as §1

[10] = system: primary AML patient cells (S019)
Outline: as §1

[11] = system: primary CLL patient cells (S043)
Outline: as §1

[12] = system: primary AML patient cells (S007)
Outline: as §1

[13] = system: primary AML patient cells (S085)
Outline: as §1

[14] = system: primary AML patient cells (S081)
Outline: as §1

[15] = system: primary AML patient cells (S025)
Outline: as §1

[16] = system: primary T-NHL patient cells (S058)
Outline: as §1

[17] = system: primary DLBCL patient cells (S076)
Outline: as §1

[18] = system: primary DLBCL patient cells (S049)
Outline: as §1

CC(C)c1cc(C(=O)N2Cc3ccc(CN4CCN(C)CC4)cc3C2)c(O)cc1O [Onalespib]
viability ([1]; 0.0032 µM): 0.914
viability ([1]; 0.016 µM): 0.992
viability ([1]; 0.08 µM): 0.887
viability ([1]; 0.4 µM): 0.962
viability ([1]; 2 µM): 0.916
viability ([2]; 0.0032 µM): 1.14
viability ([2]; 0.016 µM): 0.967
viability ([2]; 0.08 µM): 0.733
viability ([2]; 0.4 µM): 0.304
viability ([2]; 2 µM): 0.234
viability ([3]; 0.0032 µM): 0.973
viability ([3]; 0.016 µM): 1.02
viability ([3]; 0.08 µM): 0.657
viability ([3]; 0.4 µM): 0.139
viability ([3]; 2 µM): 0.15
viability ([4]; 0.0032 µM): 0.837
viability ([4]; 0.016 µM): 0.691
viability ([4]; 0.08 µM): 0.333
viability ([4]; 0.4 µM): 0.292
viability ([4]; 2 µM): 0.302
viability ([5]; 0.0032 µM): 0.93
viability ([5]; 0.016 µM): 1.11
viability ([5]; 0.08 µM): 0.675
viability ([5]; 0.4 µM): 0.33
viability ([5]; 2 µM): 0.281
viability ([6]; 0.0032 µM): 0.874
viability ([6]; 0.016 µM): 0.716
viability ([6]; 0.08 µM): 0.466
viability ([6]; 0.4 µM): 0.523
viability ([6]; 2 µM): 0.58
viability ([7]; 0.0032 µM): 0.712
viability ([7]; 0.016 µM): 0.916
viability ([7]; 0.08 µM): 0.399
viability ([7]; 0.4 µM): 0.684
viability ([7]; 2 µM): 0.66
viability ([8]; 0.0032 µM): 0.788
viability ([8]; 0.016 µM): 0.312
viability ([8]; 0.08 µM): 0.124
viability ([8]; 0.4 µM): 0.213
viability ([8]; 2 µM): 0.239
viability ([9]; 0.0032 µM): 1.17
viability ([9]; 0.016 µM): 0.872
viability ([9]; 0.08 µM): 0.234
viability ([9]; 0.4 µM): 0.235
viability ([9]; 2 µM): 0.173
viability ([10]; 0.0032 µM): 0.594
viability ([10]; 0.016 µM): 1.1
viability ([10]; 0.08 µM): 0.265
viability ([10]; 0.4 µM): 0.57
viability ([10]; 2 µM): 0.371
viability ([11]; 0.0032 µM): 0.987
viability ([11]; 0.016 µM): 1.1
viability ([11]; 0.08 µM): 0.811
viability ([11]; 0.4 µM): 0.585
viability ([11]; 2 µM): 0.395
viability ([12]; 0.0032 µM): 0.566
viability ([12]; 0.016 µM): 0.114
viability ([12]; 0.08 µM): 0.0773
viability ([12]; 0.4 µM): 0.102
viability ([12]; 2 µM): 0.111
viability ([13]; 0.0032 µM): 0.928
viability ([13]; 0.016 µM): 0.942
viability ([13]; 0.08 µM): 0.334
viability ([13]; 0.4 µM): 0.233
viability ([13]; 2 µM): 0.237
viability ([14]; 0.0032 µM): 1.05
viability ([14]; 0.016 µM): 1.08
viability ([14]; 0.08 µM): 0.311
viability ([14]; 0.4 µM): 0.0842
viability ([14]; 2 µM): 0.0764

O=C(O)CSc1cc(NS(=O)(=O)c2ccc(Br)cc2)c2ccccc2c1O [UMI-77]
viability ([1]; 0.024 µM): 1.05
viability ([1]; 0.12 µM): 1.04
viability ([1]; 0.6 µM): 0.985
viability ([1]; 3 µM): 0.978
viability ([1]; 15 µM): 0.633
viability ([2]; 0.024 µM): 1.02
viability ([2]; 0.12 µM): 1.03
viability ([2]; 0.6 µM): 1.13
viability ([2]; 3 µM): 1.32
viability ([2]; 15 µM): 0.996
viability ([3]; 0.024 µM): 1.07
viability ([3]; 0.12 µM): 1.06
viability ([3]; 0.6 µM): 1.09
viability ([3]; 3 µM): 1.04
viability ([3]; 15 µM): 0.715
viability ([4]; 0.024 µM): 0.893
viability ([4]; 0.12 µM): 0.926
viability ([4]; 0.6 µM): 0.948
viability ([4]; 3 µM): 0.937
viability ([4]; 15 µM): 1.03
viability ([5]; 0.024 µM): 1.01
viability ([5]; 0.12 µM): 1.02
viability ([5]; 0.6 µM): 0.983
viability ([5]; 3 µM): 0.99
viability ([5]; 15 µM): 0.436
viability ([6]; 0.024 µM): 0.839
viability ([6]; 0.12 µM): 0.917
viability ([6]; 0.6 µM): 0.971
viability ([6]; 3 µM): 0.961
viability ([6]; 15 µM): 0.623
viability ([7]; 0.024 µM): 0.457
viability ([7]; 0.12 µM): 0.654
viability ([7]; 0.6 µM): 0.618
viability ([7]; 3 µM): 0.47
viability ([7]; 15 µM): 0.227
viability ([8]; 0.024 µM): 1.07
viability ([8]; 0.12 µM): 1.04
viability ([8]; 0.6 µM): 0.979
viability ([8]; 3 µM): 1.01
viability ([8]; 15 µM): 0.467
viability ([9]; 0.024 µM): 0.835
viability ([9]; 0.12 µM): 0.672
viability ([9]; 0.6 µM): 0.737
viability ([9]; 3 µM): 1.03
viability ([9]; 15 µM): 0.998
viability ([10]; 0.024 µM): 1.28
viability ([10]; 0.12 µM): 1.35
viability ([10]; 0.6 µM): 1.17
viability ([10]; 3 µM): 1.24
viability ([10]; 15 µM): 0.831
viability ([11]; 0.024 µM): 0.997
viability ([11]; 0.12 µM): 0.981
viability ([11]; 0.6 µM): 0.974
viability ([11]; 3 µM): 0.979
viability ([11]; 15 µM): 0.748
viability ([12]; 0.024 µM): 0.894
viability ([12]; 0.12 µM): 0.94
viability ([12]; 0.6 µM): 0.853
viability ([12]; 3 µM): 0.973
viability ([12]; 15 µM): 0.891
viability ([15]; 0.024 µM): 1.06
viability ([15]; 0.12 µM): 1.08
viability ([15]; 0.6 µM): 1.03
viability ([15]; 3 µM): 1.18
viability ([15]; 15 µM): 0.46
viability ([13]; 0.024 µM): 0.887
viability ([13]; 0.12 µM): 1.07
viability ([13]; 0.6 µM): 0.905
viability ([13]; 3 µM): 0.834
viability ([13]; 15 µM): 1.53
viability ([14]; 0.024 µM): 0.934
viability ([14]; 0.12 µM): 0.984
viability ([14]; 0.6 µM): 0.919
viability ([14]; 3 µM): 0.812
viability ([14]; 15 µM): 0.329

CS(=O)(=O)c1ccc(C(=O)Nc2ccc(Cl)c(-c3ccccn3)c2)c(Cl)c1 [Vismodegib]
viability ([16]; 0.024 µM): 0.913
viability ([16]; 0.12 µM): 0.978
viability ([16]; 0.6 µM): 0.953
viability ([16]; 3 µM): 0.926
viability ([16]; 15 µM): 1.01
viability ([1]; 0.024 µM): 0.927
viability ([1]; 0.12 µM): 0.979
viability ([1]; 0.6 µM): 0.91
viability ([1]; 3 µM): 0.958
viability ([1]; 15 µM): 1.02
viability ([2]; 0.024 µM): 0.973
viability ([2]; 0.12 µM): 0.901
viability ([2]; 0.6 µM): 0.997
viability ([2]; 3 µM): 0.996
viability ([2]; 15 µM): 0.893
viability ([3]; 0.024 µM): 0.993
viability ([3]; 0.12 µM): 1
viability ([3]; 0.6 µM): 0.995
viability ([3]; 3 µM): 0.936
viability ([3]; 15 µM): 1
viability ([4]; 0.024 µM): 0.854
viability ([4]; 0.12 µM): 0.923
viability ([4]; 0.6 µM): 0.862
viability ([4]; 3 µM): 0.957
viability ([4]; 15 µM): 0.87
viability ([5]; 0.024 µM): 0.901
viability ([5]; 0.12 µM): 0.922
viability ([5]; 0.6 µM): 0.907
viability ([5]; 3 µM): 0.927
viability ([5]; 15 µM): 0.955
viability ([6]; 0.024 µM): 0.893
viability ([6]; 0.12 µM): 0.888
viability ([6]; 0.6 µM): 0.886
viability ([6]; 3 µM): 0.858
viability ([6]; 15 µM): 0.808
viability ([17]; 0.024 µM): 1.01
viability ([17]; 0.12 µM): 1.07
viability ([17]; 0.6 µM): 1.07
viability ([17]; 3 µM): 1.05
viability ([17]; 15 µM): 1.01
viability ([7]; 0.024 µM): 0.771
viability ([7]; 0.12 µM): 0.871
viability ([7]; 0.6 µM): 1.11
viability ([7]; 3 µM): 0.914
viability ([7]; 15 µM): 0.92
viability ([8]; 0.024 µM): 0.902
viability ([8]; 0.12 µM): 0.951
viability ([8]; 0.6 µM): 0.886
viability ([8]; 3 µM): 0.885
viability ([8]; 15 µM): 0.954
viability ([9]; 0.024 µM): 0.87
viability ([9]; 0.12 µM): 0.881
viability ([9]; 0.6 µM): 0.93
viability ([9]; 3 µM): 0.98
viability ([9]; 15 µM): 0.642
viability ([10]; 0.024 µM): 0.903
viability ([10]; 0.12 µM): 0.997
viability ([10]; 0.6 µM): 0.855
viability ([10]; 3 µM): 0.873
viability ([10]; 15 µM): 0.989
viability ([11]; 0.024 µM): 0.915
viability ([11]; 0.12 µM): 0.903
viability ([11]; 0.6 µM): 0.923
viability ([11]; 3 µM): 0.922
viability ([11]; 15 µM): 0.965
viability ([15]; 0.024 µM): 0.963
viability ([15]; 0.12 µM): 0.984
viability ([15]; 0.6 µM): 0.955
viability ([15]; 3 µM): 0.89
viability ([15]; 15 µM): 0.902
viability ([18]; 0.024 µM): 0.909
viability ([18]; 0.12 µM): 0.939
viability ([18]; 0.6 µM): 0.887
viability ([18]; 3 µM): 0.878
viability ([18]; 15 µM): 0.887
viability ([13]; 0.024 µM): 0.89
viability ([13]; 0.12 µM): 0.925
viability ([13]; 0.6 µM): 0.928
viability ([13]; 3 µM): 0.952
viability ([13]; 15 µM): 1.05
viability ([14]; 0.024 µM): 0.926
viability ([14]; 0.12 µM): 0.946
viability ([14]; 0.6 µM): 0.915
viability ([14]; 3 µM): 0.923
viability ([14]; 15 µM): 1
